Test results reported in US20260021167A1, “COMPOSITIONS AND METHODS FOR TREATING OR PREVENTING NEURODEGENERATIVE DISEASES” (Delaware State University, priority 2022, published 2026).
“Also recorded” adds a separate entry of the source.

How the values were obtained:
[1] = system: N27 dopaminergic cell line; experiment: In vitro cell death induced by MPP+ or PFF; type: cell-based, rat; conditions: MPP+ or PFF-mediated toxic conditions
nigrostriatal neurons = experiment: ROS in nigrostriatal neurons of PFF-injected mice; type: in vivo; conditions: PFF injection, mouse brains
[2] = system: phosphorylated Ser-129-α-synuclein; experiment: Immunohistochemistry of phosphorylated Ser-129-α-synuclein in brain sections of PFF-injected mice; type: in vivo, mouse
SENP-1 = target: T1, SENP-1 (Mus musculus, UniProt P59110); experiment: Western blot of SENP-1 in brain tissue extracts of PFF-injected mice; type: in vivo; conditions: vs PFF only
T1 construct: from tissue; host or cells: mouse brain: midbrain (MB) and striatum (STR) extracts
T1 sequence (P59110 1-640): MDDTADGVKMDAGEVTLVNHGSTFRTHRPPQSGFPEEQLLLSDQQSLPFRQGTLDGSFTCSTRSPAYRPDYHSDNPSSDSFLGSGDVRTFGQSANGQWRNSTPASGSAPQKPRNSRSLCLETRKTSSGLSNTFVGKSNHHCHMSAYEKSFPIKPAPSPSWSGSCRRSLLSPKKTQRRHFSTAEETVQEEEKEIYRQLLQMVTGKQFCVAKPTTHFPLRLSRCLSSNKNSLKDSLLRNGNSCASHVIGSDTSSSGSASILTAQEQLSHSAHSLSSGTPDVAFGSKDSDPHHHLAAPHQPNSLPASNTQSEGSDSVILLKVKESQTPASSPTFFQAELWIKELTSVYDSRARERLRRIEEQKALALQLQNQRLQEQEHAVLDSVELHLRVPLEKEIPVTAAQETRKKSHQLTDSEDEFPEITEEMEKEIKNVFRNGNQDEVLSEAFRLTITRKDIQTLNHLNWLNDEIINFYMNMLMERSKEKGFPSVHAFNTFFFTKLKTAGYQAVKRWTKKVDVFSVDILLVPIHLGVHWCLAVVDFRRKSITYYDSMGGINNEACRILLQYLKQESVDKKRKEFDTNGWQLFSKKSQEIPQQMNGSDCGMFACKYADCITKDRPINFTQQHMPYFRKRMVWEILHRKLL
Procedure: (§1) A mouse model of Parkinson's disease is C57BL/6 male or female mice (50% each) injected with 5 μg of mouse PFF at 12 months old, followed by a treatment below for 6-7 weeks: • 1) without PFF injection, followed by vehicle (control, n=7); • 2) PFF injection, followed by vehicle (PFF only: control, n=8); • 3) PFF injection, followed by daily 10 mg/kg Momordin gavage (n=7-8); • 4) PFF injection, followed by daily 50 mg/kg Momordin gavage (n=7-8).
(§2) Immunoblot Analyses. A total of three protein extractions were performed. In the first extraction, a gentle RIPA buffer containing the low concentration of detergent (25 mM Tris-HCL, 150 mM NaCl, 1% NP-40, 1% sodium deoxycholate and 0.1% SDS) was added with phosphatase inhibitors (100 μL for 10 mL) and 5 mM EDTA. The mixture was sonicated and centrifuged at 14,000 rpm for 10 min. The supernatant was collected for measuring the levels of phosphorylated α-syn, SENP-1 or SUMO-1 conjugated proteins for different groups. […] The primary antibodies pertaining to each protein analyzed were diluted at 1:1000 (p-Ser-129-α-synuclein, Cell signaling; SENP-1, SAB4501345, EMD) and incubated at 4° C. overnight. […] ImageJ was used to analyze specific bands on each blot and measured against the loading control (β-actin) for normalizing each band intensity.

SENP-1 on α-synuclein = target: T2, SENP-1 on α-synuclein (Mus musculus, UniProt P59110); experiment: Western blot of SENP-1 on α-synuclein in α-synuclein IP tissue samples; type: in vivo; conditions: PFF-injected mice, vs PFF only
T2 construct: from tissue; host or cells: mouse brain: midbrain and striatum, α-synuclein immunoprecipitates
T2 sequence (P59110 1-640): T1 sequence (P59110 1-640)
Procedure: A) In Western blots, Momordin reversed the toxicity from PFF injection in reducing phospho-α-synuclein and SENP-1 on α-synuclein in the MB and STR. […] A pathological marker, phosphorylated α-synuclein was increased by PFF injection, which was reversed by Momordin treatment in the MB (F) and the STR (G).
as §1

SUMO-1 = experiment: Western blot of SUMO-1 in brain tissue extracts of PFF-injected mice; type: in vivo, mouse; conditions: vs PFF only
Procedure: as §1, §2

[3] = both 10 and 50 mg/kg oral, PFF-injected mice, vs PFF only

CC1(C)CC[C@]2(C(=O)O)CC[C@]3(C)C(=CC[C@@H]4[C@@]5(C)CC[C@H](O[C@@H]6O[C@H](C(=O)O)[C@@H](O)[C@H](O[C@@H]7OC[C@@H](O)[C@H](O)[C@H]7O)[C@H]6O)C(C)(C)[C@@H]5CC[C@]43C)[C@@H]2C1 [Momordin lc]
protection against in vitro cell death [1]: protect against in vitro cell death
level of ROS in nigrostriatal neurons (nigrostriatal neurons): alleviated the level of ROS
accumulation of phosphorylated alpha-synuclein in multiple brain regions ([2]; 10 or 50 mg/kg oral for 6-7 weeks, 15-16 month-old mice, 3-4 months after PFF injection): sufficient to prevent the accumulation; also recorded: effective to prevent the accumulation
level of phospho-α-synuclein in the SNc (IHC) [2, 3]: significantly reduced
level of phospho-α-synuclein in the striatum (IHC) [2, 3]: significantly reduced
PFF-induced SENP-1 in the MB (Western blot, tissue extracts) (SENP-1; midbrain): reduced
PFF-induced SENP-1 in the STR (Western blot, tissue extracts) (SENP-1; striatum): reduced
PFF-induced SENP-1 on α-synuclein in the MB (α-synuclein IP) (SENP-1 on α-synuclein; midbrain): reduced
PFF-induced SENP-1 on α-synuclein in the STR (α-synuclein IP) (SENP-1 on α-synuclein; striatum): reduced
level of SUMO-1 in the MB (Western blot, tissue extracts) (SUMO-1; midbrain): enhanced level of SUMO-1
level of SUMO-1 in the STR (Western blot, tissue extracts) (SUMO-1; striatum): enhanced level of SUMO-1
